From US20090318492A1, “INDOLE COMPOUNDS HAVING C4-ACIDIC SUBSTITUENTS AND USE THEREOF AS PHOSPHOLIPASE-A2 INHIBITORS” (priority 2005, published 2009) come the findings set out here.

Structures are written as SMILES.

The term IC50 denotes the concentration that inhibits the measured activity by half.

Experiment [1] addresses T1, Porcine group 1B phospholipase A2 (pps PLA2) (Sus scrofa, UniProt P00592).
T1 construct: purchased
The experiment is described as follows: Example 8 fluorimetric PLA2 inhibition assay (PPyrPM), porcine enzyme. The class given is biochemical. The source says:
(§1) In this example, a fluorimetric assay procedure was used to evaluate the indole and indole-related compounds of the invention as inhibitors of group 1B phospholipase A2 (PLA2) from human, mouse and porcine. A description of this assay is found in articles: Leslie, C C and Gelb, M H (2004) Methods in Molecular Biology “Assaying phospholipase A2 activity”, 284:229-242; Singer, A G, et al. (2002) Journal of Biological Chemistry “Interfacial kinetic and binding properties of the complete set of human and mouse groups I, II, V, X, and XII secreted phospholipases A2”, 277:48535-48549, which are incorporated herein as references.
In general, this assay used a phosphatidylmethanol substrate with a pyrene fluorophore on the terminal end of the sn-2 fatty acyl chain. […] The effect of a given inhibitor and inhibitor concentration on human, mouse and porcine phospholipase was determined. […]
The following procedure was performed to evaluate the inhibitory potency of the evaluated compounds. • 1. […] The fluorescence was read using an excitation of 342 nm and an emission of 395 nm.
Evaluated compounds were tested in duplicate and their values were averaged to plot the inhibition curve and calculate the IC50. […] The IC50 was calculated using the BioDataFit 1.02 (Four Parameter Model) software package. […]

In experiment [2] the target is T2, mouse group 1B PLA2 (mps PLA2) (Mus musculus, UniProt Q9Z0Y2).
T2 construct: made in house; host or cells: E. coli
Put plainly: Example 8 fluorimetric PLA2 inhibition assay (PPyrPM), mouse enzyme. The class given is biochemical.
Description: as §1
In general, this assay used a phosphatidylmethanol substrate with a pyrene fluorophore on the terminal end of the sn-2 fatty acyl chain. Without being bound by theory, close proximity of the pyrenes from neighboring phospholipids in a phospholipid vesicle caused the spectral properties to change relative to that of monomeric pyrene. Bovine serum albumin was present in the aqueous phase and captured the pyrene fatty acid when it is liberated from the glycerol backbone owing to the PLA2-catalyzed reaction. However, a potent inhibitor can inhibit the liberation of pyrene fatty acid from the glycerol backbone. […] The effect of a given inhibitor and inhibitor concentration on human, mouse and porcine phospholipase was determined.
Recombinant human and mouse group 1B PLA2 were cloned and expressed in E. coli as insoluble inclusion bodies. The inclusion bodies were isolated and purified by sonicating cell pellet in lysis buffer (50 mM Tris-HCl pH 7.0, 250 mM NaCl, 0.5% Triton 100), centrifugation at 12,000×g, and washing three times in washing buffer (20 mM Tris-HCl pH 7.0, 250 mM NaCl, 0.5% Triton 100). […]
The following procedure was performed to evaluate the inhibitory potency of the evaluated compounds. • 1. […]

T2 sequence (Q9Z0Y2 23-146): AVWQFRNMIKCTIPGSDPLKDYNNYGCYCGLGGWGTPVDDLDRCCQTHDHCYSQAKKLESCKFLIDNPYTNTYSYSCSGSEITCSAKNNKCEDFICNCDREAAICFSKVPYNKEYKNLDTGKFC
T1 sequence (P00592 23-146): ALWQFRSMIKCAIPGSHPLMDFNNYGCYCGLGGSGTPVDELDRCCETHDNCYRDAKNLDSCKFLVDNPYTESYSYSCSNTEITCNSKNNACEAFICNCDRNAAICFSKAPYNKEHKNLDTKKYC

On to `Cc1c(C(=O)C(N)=O)c2c(OCC(=O)NS(=O)(=O)CCCC(=O)O)cccc2n1Cc1ccccc1` [ILY-IV-40, 4-[2-(3-Aminooxalyl-1-benzyl-2-methyl-1H-indol-4-yloxy)-acetylsulfamoyl]-butyric acid], for which the IC50 is 1010 nM in experiment [1] and 1360 nM in experiment [2].
